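Cells were grown in 96-well plates and exposed to each compound for 48 hours at five concentrations; endpoints were interpolated linearly between bracketing concentrations, or set to the highest concentration if not reached. Abbreviation: GI50, concentration required for 50% inhibition of growth.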 Calls of active or inactive are those of the source. No stated cut-off is given here; in the data, active = GI50 up to about 1.1 µM and inactive = higher.
Key:
Assay in all cases: NCI-60 cell line screen, 48 h
NCI-H226 = system: NCI-H226
SF-268 = system: SF-268
OVCAR-5 = system: OVCAR-5
NCI-H23 = system: NCI-H23
SW-620 = system: SW-620
NCI/ADR-RES = system: NCI/ADR-RES
OVCAR-4 = system: OVCAR-4
EKVX = system: EKVX
M14 = system: M14
HCT-15 = system: HCT-15
U-251 = system: U-251
IGROV-1 = system: IGROV-1
OVCAR-3 = system: OVCAR-3
SF-295 = system: SF-295
MDA-MB-231 = system: MDA-MB-231
Malme-3M = system: Malme-3M
RXF 393 = system: RXF 393
SK-MEL-5 = system: SK-MEL-5
HOP-92 = system: HOP-92
SNB-19 = system: SNB-19
HOP-62 = system: HOP-62
HCT-116 = system: HCT-116
DU-145 = system: DU-145
SF-539 = system: SF-539
CCRF-CEM = system: CCRF-CEM
SK-MEL-28 = system: SK-MEL-28
ACHN = system: ACHN
786-0 = system: 786-0
SN12C = system: SN12C
T47D = system: T47D
UACC-62 = system: UACC-62
A549 = system: A549
KM12 = system: KM12
MOLT-4 = system: MOLT-4
MCF7 = system: MCF7
CAKI-1 = system: CAKI-1
BT-549 = system: BT-549
MDA-N = system: MDA-N
LOX IMVI = system: LOX IMVI
RPMI-8226 = system: RPMI-8226
SNB-75 = system: SNB-75
OVCAR-8 = system: OVCAR-8
K562 = system: K562
Hs-578T = system: Hs-578T
TK-10 = system: TK-10
A498 = system: A498
HT-29 = system: HT-29
UACC-257 = system: UACC-257
UO-31 = system: UO-31
NCI-H460 = system: NCI-H460
COLO 205 = system: COLO 205
HCC 2998 = system: HCC 2998
HL-60 = system: HL-60
SK-OV-3 = system: SK-OV-3
PC-3 = system: PC-3
MDA-MB-435 = system: MDA-MB-435
SK-MEL-2 = system: SK-MEL-2
SR = system: SR

With Cc1cnccc1/N=N/c1ccc(N(C)C)cc1 the GI50 (NCI-H226) was 4.82 µM (inactive), the GI50 (SF-268) was 16.8 µM (inactive) and the GI50 (OVCAR-5) was 28 µM (inactive). For the same molecule, the GI50 (NCI-H23) was 24.4 µM (inactive), the GI50 (SW-620) was 22.4 µM (inactive) and the GI50 (NCI/ADR-RES) was 13 µM (inactive). The GI50 (OVCAR-4) was 16.9 µM (inactive), the GI50 (EKVX) was 9.55 µM (inactive) and the GI50 (M14) was 41.5 µM (inactive). For the same molecule, the GI50 (HCT-15) was 15.1 µM, the GI50 (U-251) was 21.3 µM (inactive) and the GI50 (IGROV-1) was 7.8 µM (inactive). For the same molecule, the GI50 (OVCAR-3) was 19.6 µM (inactive), the GI50 (SF-295) was 21.4 µM (inactive) and the GI50 (MDA-MB-231) was 16.3 µM (inactive). The GI50 (Malme-3M) was 35.7 µM (inactive), the GI50 (RXF 393) was 14.9 µM (inactive) and the GI50 (SK-MEL-5) was 15 µM (inactive). For the same molecule, the GI50 (HOP-92) was 9.38 µM (inactive), the GI50 (SNB-19) was 40 µM (inactive) and the GI50 (HOP-62) was 56.5 µM (inactive). The GI50 (HCT-116) was 22.9 µM (inactive), the GI50 (DU-145) was 66.8 µM (inactive) and the GI50 (SF-539) was 19.6 µM (inactive). For the same molecule, the GI50 (CCRF-CEM) was 37 µM (inactive), the GI50 (SK-MEL-28) was 22.3 µM (inactive) and the GI50 (ACHN) was 20.5 µM (inactive). The GI50 (786-0) was 42.2 µM (inactive), the GI50 (SN12C) was 21.9 µM (inactive) and the GI50 (T47D) was 48.6 µM (inactive). For the same molecule, the GI50 (UACC-62) was 13.8 µM (inactive), the GI50 (A549) was 30.7 µM (inactive) and the GI50 (KM12) was 20.3 µM (inactive). The GI50 (MOLT-4) was 31.3 µM (inactive), the GI50 (MCF7) was 14.4 µM (inactive) and the GI50 (CAKI-1) was 25.9 µM (inactive). The GI50 (BT-549) was 15.9 µM (inactive), the GI50 (MDA-N) was 8.32 µM (inactive) and the GI50 (LOX IMVI) was 17.4 µM (inactive). The GI50 (RPMI-8226) was 18.5 µM (inactive), the GI50 (SNB-75) was 14.5 µM (inactive) and the GI50 (OVCAR-8) was 22.1 µM (inactive). The GI50 (K562) was 18.6 µM (inactive), the GI50 (Hs-578T) was 29.9 µM (inactive) and the GI50 (TK-10) was 17.2 µM (inactive). The GI50 (A498) was 28.3 µM (inactive), the GI50 (HT-29) was 23.1 µM (inactive) and the GI50 (UACC-257) was 22.3 µM (inactive). The GI50 (UO-31) was 18.1 µM (inactive), the GI50 (NCI-H460) was 25.7 µM (inactive) and the GI50 (COLO 205) was 11.9 µM (inactive). The GI50 (HCC 2998) was 13.5 µM (inactive), the GI50 (HL-60) was 47.5 µM (inactive) and the GI50 (SK-OV-3) was 16.7 µM (inactive). The GI50 (PC-3) was 26.6 µM (inactive) and the GI50 (MDA-MB-435) was 7.6 µM (inactive).
For O=C(N/N=C/c1ccc(Br)cc1)N/N=C/c1ccc(Br)cc1, the GI50 (NCI-H226) was 7.43 µM (inactive), the GI50 (SF-268) was 10.4 µM (inactive) and the GI50 (OVCAR-5) was 35.3 µM (inactive). The GI50 (NCI-H23) was 22.9 µM (inactive), the GI50 (SW-620) was 7.13 µM (inactive) and the GI50 (NCI/ADR-RES) was 5.6 µM (inactive). For the same molecule, the GI50 (OVCAR-4) was 2.37 µM (inactive), the GI50 (SK-MEL-2) was 75.5 µM (inactive) and the GI50 (EKVX) was 10.3 µM (inactive). For the same molecule, the GI50 (M14) was 11.1 µM (inactive), the GI50 (HCT-15) was 16.8 µM and the GI50 (U-251) was 6.24 µM (inactive). The GI50 (IGROV-1) was 4.72 µM (inactive), the GI50 (OVCAR-3) was 3.81 µM (inactive) and the GI50 (SR) was 4.33 µM (inactive). For the same molecule, the GI50 (SF-295) was 6.19 µM (inactive), the GI50 (MDA-MB-231) was 3.38 µM (inactive) and the GI50 (Malme-3M) was 3.05 µM (inactive). The GI50 (RXF 393) was 13.3 µM (inactive), the GI50 (SK-MEL-5) was 14.1 µM (inactive) and the GI50 (SNB-19) was 4.42 µM (inactive). For the same molecule, the GI50 (HOP-62) was 5.56 µM (inactive), the GI50 (HCT-116) was 3.53 µM (inactive) and the GI50 (DU-145) was 9.12 µM (inactive). For the same molecule, the GI50 (CCRF-CEM) was 3.24 µM (inactive), the GI50 (SK-MEL-28) was 12 µM (inactive) and the GI50 (ACHN) was 4.94 µM (inactive). For the same molecule, the GI50 (786-0) was 3.92 µM (inactive), the GI50 (SN12C) was 3.52 µM (inactive) and the GI50 (T47D) was 4.38 µM (inactive). For the same molecule, the GI50 (UACC-62) was 12.6 µM (inactive), the GI50 (A549) was 16 µM (inactive) and the GI50 (KM12) was 17.1 µM (inactive). The GI50 (MOLT-4) was 4.42 µM (inactive), the GI50 (MCF7) was 11.3 µM (inactive) and the GI50 (CAKI-1) was 4.66 µM (inactive). The GI50 (BT-549) was 20.9 µM (inactive), the GI50 (MDA-N) was 10.2 µM (inactive) and the GI50 (LOX IMVI) was 3.98 µM (inactive). The GI50 (RPMI-8226) was 10.6 µM (inactive), the GI50 (OVCAR-8) was 5.08 µM (inactive) and the GI50 (K562) was 16.6 µM (inactive). The GI50 (Hs-578T) was 3.78 µM (inactive), the GI50 (TK-10) was 2.44 µM (inactive) and the GI50 (HT-29) was 11.4 µM (inactive). For the same molecule, the GI50 (UACC-257) was 17.6 µM (inactive), the GI50 (UO-31) was 10.9 µM (inactive) and the GI50 (COLO 205) was 9.44 µM (inactive). For the same molecule, the GI50 (HCC 2998) was 17.3 µM (inactive), the GI50 (HL-60) was 13.2 µM (inactive) and the GI50 (SK-OV-3) was 2.43 µM (inactive). The GI50 (PC-3) was 17.3 µM (inactive) and the GI50 (MDA-MB-435) was 12.3 µM (inactive).

Source: ChEMBL document CHEMBL1201862, “PubChem BioAssay data set” (2004)
